Laboratory results taken from patent US11246865B2 (priority 2017, dated 2022).
Values joined by “and” are separate entries in the source; they are usually repeats but may differ in a detail not shown here. Identical values can stand only once. “Also recorded” adds a separate entry of the source.

How the values were obtained:
[1] = Preclinical toxicity profile; assay type: in vivo
Source text: The preclinical toxicity profile of DPI-125 was as expected for an opioid compound, with two positive exceptions.

[2] = in vivo; settings: rat
[3] = target: T1, delta receptor in the mouse brain (Mus musculus, UniProt P32300); test: Mouse brain delta receptor agonism
T1 construct: from tissue; host or cells: mouse brain
T1 sequence (P32300 whole entry): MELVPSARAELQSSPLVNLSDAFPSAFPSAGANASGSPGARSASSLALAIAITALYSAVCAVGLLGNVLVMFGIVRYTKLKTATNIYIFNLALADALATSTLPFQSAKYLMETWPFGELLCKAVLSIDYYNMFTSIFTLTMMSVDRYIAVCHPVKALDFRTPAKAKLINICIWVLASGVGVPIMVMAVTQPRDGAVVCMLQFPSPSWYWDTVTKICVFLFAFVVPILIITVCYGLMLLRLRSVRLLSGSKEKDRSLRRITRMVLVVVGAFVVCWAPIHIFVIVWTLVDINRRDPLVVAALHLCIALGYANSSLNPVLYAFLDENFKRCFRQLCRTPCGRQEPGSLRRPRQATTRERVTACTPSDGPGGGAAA

[4] = Study 1: tolerance and cross-tolerance, tail pinch test (MPE); assay type: in vivo, rat
[5] = rat, in vivo
[6] = rat, in vivo; remark: listed apart in the source
[7] = Phase 1 study DPI-125.IV.001, safety of single intravenous bolus doses; assay type: in vivo, human
Protocol: Given this positive preclinical data, Good Laboratory Practice (GLP) Investigational New Drug (IND) enabling toxicology studies were performed. DPI-125 was tested in human subjects in a PK and safety study. DPI-125.IV.001, was a randomized, single-center, double-blind, placebo-controlled, dose escalating Phase 1 study. The primary objective was to evaluate the safety of single doses of DPI-125 administered by intravenous bolus infusion in normal healthy adult subjects. Male and female subjects between 18 and 55 years of age, inclusive, who were in good health and who were not taking any medications were eligible for enrollment. For each dose group, cohorts of 6 subjects were randomized to receive either placebo (n=1) or DPI-125 for Injection (n=5) as a single bolus dose of 5, 10, 20, or 50 μg/kg administered over 2 minutes. A final cohort received 25 μg/kg administered over 1 minute. For this first in human study, it was decided that 50 μg/kg should be the highest dose to be tested so the maximum tolerated dose was not determined.

[8] = Studies 2 and 3: antinociceptive ED50 in naive and tolerant animals, tail pinch test; assay type: in vivo, rat; settings: for antinociceptive ED50: s.c.; for antinociceptive ED50 / ED50: 20 min tail pinch; for ED50: Rattus norvegicus, sc, 20 min
[9] = target: T2, delta receptor in the mouse vas deferens (Mus musculus, UniProt P32300); test: Mouse vas deferens delta receptor agonism
T2 construct: from tissue; host or cells: mouse vas deferens
T2 sequence (P32300 whole entry): as above

[10] = healthy adults, single IV bolus 5-50 μg/kg

In the case of `C=CCN1C[C@H](C)N([C@H](c2ccsc2)c2cccc(O)c2)C[C@H]1C` [DPI-125, (−)3-((S)-((2S,5R)-4-allyl-2,5-dimethyl-1-piperazinyl)(3-thienyl)methyl)phenol], the emesis ([1]; even at the highest doses given) is reported as “did not occur”, the “flushing, reddened mucous membranes or urticaria” value ([1]; in vivo) is reported as “did not produce any” and the ED50 [2] is reported as 0.72 mg/kg. For the same compound, the “delta receptor agonist activity” value [3] was “an agonist at the delta receptor”, the “Mean MPE” value ([4]; DPI-125 tolerant animals, challenge dose 1 (day 7), 30 min) was 3.51% and the “Mean MPE” value ([4]; DPI-125 tolerant animals, challenge dose 1 (day 7), morphine 5.0 or DPI-125 1.0 mg/kg s.c., 20 min) was 8.77%. For the same compound, the “Mean MPE” value ([4]; DPI-125 tolerant animals, challenge dose 2 (day 7.25), 20 min) was 22.82%, the “Mean MPE” value ([4]; DPI-125 tolerant animals, challenge dose 2 (day 7.25), 30 min) was 7.90% and the “Mean MPE” value ([4]; DPI-125 tolerant animals, challenge dose 3 (day 8), 20 min) was 9.65%. For the same compound, the “Mean MPE” value ([4]; DPI-125 tolerant animals, challenge dose 3 (day 8), 30 min) was 2.63%, the “Mean MPE” value ([4]; DPI-125 tolerant animals, challenge dose 4 (day 8.25), 20 min) was 1.8±1.8% and 1.76% and the “Mean MPE” value ([4]; DPI-125 tolerant animals, challenge dose 4 (day 8.25), 30 min) was 0.88%. The “MPE on Day 1” value ([4]; all animals, both dose points and both time points (20 and 30 min)) was 100%, the “time to maximal/complete tolerance” value ([4]; b.i.d. s.c. dosing, morphine 5.0 mg/kg, DPI-125 1.0 mg/kg) was 8 days and the “Mean MPE” value ([4]; morphine tolerant animals, challenge dose 1 (day 6), 30 min) was 80.7±15.2% and 80.7%. The “Mean MPE” value ([4]; morphine tolerant animals, challenge dose 1 (day 6), morphine 5.0 or DPI-125 1.0 mg/kg s.c., 20 min) was 64.9%, the “Mean MPE” value ([4]; morphine tolerant animals, challenge dose 2 (day 6.25), 20 min) was 81.6±12.6% and 81.6% and the “Mean MPE” value ([4]; morphine tolerant animals, challenge dose 2 (day 6.25), 30 min) was 42.1%. The “Mean MPE” value ([4]; morphine tolerant animals, challenge dose 3 (day 7), 20 min) was 50.9%, the “Mean MPE” value ([4]; morphine tolerant animals, challenge dose 3 (day 7), 30 min) was 57.0% and the “Mean MPE” value ([4]; morphine tolerant animals, challenge dose 4 (day 7.25), 20 min) was 30.7%. The “Mean MPE” value ([4]; morphine tolerant animals, challenge dose 4 (day 7.25), 30 min) was 26.3%, the “Mean MPE” value ([4]; tolerance development, dose 1 (day 1), s.c. BID (morphine 5.0, DPI-125 1.0 mg/kg), 20 minutes post-drug) was 100.0% and the “Mean MPE” value ([4]; tolerance development, dose 1 (day 1), s.c. BID (morphine 5.0, DPI-125 1.0 mg/kg), 30 minutes post-drug) was 100.0%. The “Mean MPE” value ([4]; tolerance development, dose 2 (day 1.25), s.c. BID, 20 minutes post-drug) was 100.0%, the “Mean MPE” value ([4]; tolerance development, dose 2 (day 1.25), s.c. BID, 30 minutes post-drug) was 100.0% and the “Mean MPE” value ([4]; tolerance development, dose 3 (day 2), s.c. BID, 20 minutes post-drug) was 99.1%. The “Mean MPE” value ([4]; tolerance development, dose 3 (day 2), s.c. BID, 30 minutes post-drug) was 100.0%, the “Mean MPE” value ([4]; tolerance development, dose 4 (day 2.25), s.c. BID, 20 minutes post-drug) was 79.8% and the “Mean MPE” value ([4]; tolerance development, dose 4 (day 2.25), s.c. BID, 30 minutes post-drug) was 88.2%. For the same compound, the “Mean MPE” value ([4]; tolerance development, dose 5 (day 3), s.c. BID, 20 minutes post-drug) was 84.7±10.0% and 84.7%, the “Mean MPE” value ([4]; tolerance development, dose 5 (day 3), s.c. BID, 30 minutes post-drug) was 66.7±10.9% and 66.7% and the “Mean MPE” value ([4]; tolerance development, dose 6 (day 3.25), s.c. BID, 20 minutes post-drug) was 81.1%. The “Mean MPE” value ([4]; tolerance development, dose 6 (day 3.25), s.c. BID, 30 minutes post-drug) was 69.7%, the “Mean MPE” value ([4]; tolerance development, dose 7 (day 4), s.c. BID, 20 minutes post-drug) was 70.6±12.3% and 70.6% and the “Mean MPE” value ([4]; tolerance development, dose 7 (day 4), s.c. BID, 30 minutes post-drug) was 72.8%. For the same compound, the “Mean MPE” value ([4]; tolerance development, dose 8 (day 4.25), s.c. BID, 20 minutes post-drug) was 75.0%, the “Mean MPE” value ([4]; tolerance development, dose 8 (day 4.25), s.c. BID, 30 minutes post-drug) was 51.3% and the “Mean MPE” value ([4]; tolerance development, dose 9 (day 5), s.c. BID, 20 minutes post-drug) was 75.9±9.5% and 75.9%. For the same compound, the “Mean MPE” value ([4]; tolerance development, dose 9 (day 5), s.c. BID, 30 minutes post-drug) was 40.8±11.2% and 40.8%, the “Mean MPE” value ([4]; tolerance development, dose 10 (day 5.25), s.c. BID, 20 minutes post-drug) was 47.4±11.9% and 47.4% and the “Mean MPE” value ([4]; tolerance development, dose 10 (day 5.25), s.c. BID, 30 minutes post-drug) was 28.5±9.3% and 28.5%. The “Mean MPE” value ([4]; tolerance development, dose 11 (day 6), s.c. BID, 20 minutes post-drug) was 34.2±12.5% and 34.2%, the “Mean MPE” value ([4]; tolerance development, dose 11 (day 6), s.c. BID, 30 minutes post-drug) was 21.1% and the “Mean MPE” value ([4]; tolerance development, dose 12 (day 6.25), s.c. BID, 20 minutes post-drug) was 37.7±12.7% and 37.7%. The “Mean MPE” value ([4]; tolerance development, dose 12 (day 6.25), s.c. BID, 30 minutes post-drug) was 11.8±7.9% and 11.8%, the “antinociceptive effect / tolerance in DPI-125 tolerant animals” value ([4]; tolerant to 1.0 mg/kg DPI-125 BID, challenge morphine 5.0 or DPI-125 1.0 mg/kg) was “no antinociceptive effects” and the “antinociceptive effect / tolerance in morphine tolerant animals” value ([4]; tolerant to 5.0 mg/kg morphine BID, challenge morphine 5.0 or DPI-125 1.0 mg/kg) was “only partially tolerant; also recorded: significant antinociceptive effects”. For the same compound, the “Analgesic ED50 Tail Pinch” value [5] was 0.050 mg/kg, the “analgesic potency relative to morphine” value [5] was > 40 × and the “antinociceptive potency relative to morphine” value [5] was 47 times. For the same compound, the “Therapeutic Ratio” value [6] was 14.4, the “therapeutic index relative to morphine” value [6] was “approximately 7 ×” and the “seizure activity / seizure liability” value ([7]; EEG, first in human trial) was “no seizure activity was noted; also recorded: does not have seizure liability”. For the same compound, the “dysphoria as a side effect” value ([7]; first in human trial) was “nor does it exhibit dysphoria”, the “corrected QT intervals” value [7, 10] was “No time- or dose-related trends” and the “deaths or serious AEs” value [7, 10] was “no deaths or any other serious AEs reported”. For the same compound, the “most common drug-related AEs” value [7, 10] was “somnolence, dizziness, and paraesthesia”, the tolerability [7, 10] was “well tolerated” and the “antinociceptive ED50” value ([8]; DPI-125 tolerant animals) was 1.218 mg/kg. The “Fold Change of ED50” value ([8]; DPI-125 tolerant versus naive animals) was 2.99 fold and 3.0 fold, the ED50 ([8]; DPI-125 tolerant animals) was 1.22 mg/kg and the ED50 ([8]; morphine tolerant animals) was 0.72 mg/kg. The ED50 ([8]; naive animals) was 0.41 mg/kg, the “potency in morphine tolerant animals relative to DPI-125 tolerant animals” value ([8]; more potent in morphine tolerant) was 1.7 fold and the “antinociceptive ED50” value ([8]; morphine tolerant animals) was 0.717 mg/kg. The “antinociceptive ED50” value ([8]; naive animals) was 0.407 mg/kg and the delta-opioid agonist activity [9] was “acts as a delta-opioid agonist”.
